Drawing on patent publication US8716263B2, “Synthesis of purine nucleosides” (Gilead Pharmasset LLC, priority 2008, dated 2014), this text covers EC90 for 6 compounds.

Like-named read-outs stand apart in the source and are kept apart here.

This experiment relates to HCV replicon RNA-containing Huh7 cells (clone A cells). As to the kind of experiment: HCV replicon assay. The class given is cell-based. The following applies: read-out: CloneA EC90. The procedure:
HCV replicon assay. HCV replicon RNA-containing Huh7 cells (clone A cells; Apath, LLC, St. Louis, Mo.) were kept at exponential growth in Dulbecco's modified Eagle's medium (high glucose) containing 10% fetal bovine serum, 4 mM L-glutamine and 1 mM sodium pyruvate, 1×nonessential amino acids, and G418 (1,000 μg/m1). Antiviral assays were performed in the same medium without G418. Cells were seeded in a 96-well plate at 1,500 cells per well, and test compounds were added immediately after seeding. Incubation time 4 days. At the end of the incubation step, total cellular RNA was isolated (RNeasy 96 kit; Qiagen). Replicon RNA and an internal control (TaqMan rRNA control reagents; Applied Biosystems) were amplified in a single-step multiplex RT-PCR protocol as recommended by the manufacturer. The HCV primers and probe were designed with Primer Express software (Applied Biosystems) and covered highly conserved 5′-untranslated region (UTR) sequences (sense, 5′-AGCCATGGCGTTAGTA(T)GAGTGT-3′ (SEQ ID NO: 1), and antisense, 5′-TTCCGCAGACCACTATGG-3′ (SEQ ID NO: 2); probe, 5′-FAM-[…]-TAMRA-3′ SEQ ID NO: 3)).
To express the antiviral effectiveness of a compound, the threshold RT-PCR cycle of the test compound was subtracted from the average threshold RT-PCR cycle of the no-drug control (ΔCtHCV). A ΔCt of 3.3 equals a 1-log 10 reduction (equal to the 90% effective concentration [EC90]) in replicon RNA levels. The cytotoxicity of the test compound could also be expressed by calculating the ΔCtrRNA values. The ΔΔCt specificity parameter could then be introduced (ΔCtHCV−ΔCtrRNA) in which the levels of HCV RNA are normalized for the rRNA levels and calibrated against the no-drug control.

The mark [1] stands for this setting: clone A Huh7 replicon cells, incubation time 4 days, replicon RNA by RT-PCR, ΔCt of 3.3 = 1-log 10 reduction = EC90.

Broadly, the EC90 is the point of the concentration-response curve where the effect stands at 90%.

`COC(=O)[C@H](C)NP(=O)(OC[C@H]1O[C@@H](n2cnc3c(N4CCC4)nc(N)nc32)[C@](C)(F)[C@@H]1O)Oc1ccccc1` (stereo partly drawn) [Compound 12]: under setting [1], the EC90 was 0.07 µM.
For `COc1nc(N)nc2c1ncn2[C@@H]1O[C@@H]2CO[P@](=O)(OC3CCC3)O[C@H]2[C@@]1(C)F` [Compound 23, 6-Methoxy-9-((2R,4aR,6R,7R,7aR)-7-fluoro-2-cyclobutoxy-7-methyl-2-oxo-tetrahydro-2λ^5-furo[3,2-d][1,3,2]dioxaphosphinin-6-yl)-9H-purin-2-ylamine], the EC90 (Hepatitis C virus, Huh-7, 96 h, clone A Huh7 replicon cells, incubation time 4 days, replicon RNA by RT-PCR, ΔCt of 3.3 = 1-log 10 reduction = EC90) amounted to 0.13 µM.
`COP1(=O)OC[C@H]2O[C@@H](n3cnc4c(N5CCC5)nc(N)nc43)[C@](C)(F)[C@@H]2O1` (stereo partly drawn) [Compound 15, 6-Azetidin-1-yl-9-((4aR,6R,7R,7aR)-7-fluoro-2-methoxy-7-methyl-2-oxo-tetrahydrofuro[3,2-d][1,3,2]dioxaphosphinin-6-yl)-9H-purin-2-ylamine]: the EC90 (Hepatitis C virus, Huh-7, 96 h) worked out at 0.71 µM.
Consider `COc1nc(N)nc2c1ncn2[C@@H]1O[C@@H]2CO[P@](=O)(OC3CCCC3)O[C@H]2[C@@]1(C)F` [Compound 24, 6-Methoxy-9-((2R,4aR,6R,7R,7aR)-7-fluoro-2-cyclopentoxy-7-methyl-2-oxo-tetrahydro-2μ^5-furo[3,2-d][1,3,2]dioxaphosphinin-6-yl)-9H-purin-2-ylamine], for which, under setting [1], the EC90 was 0.037 µM.
Take `C[C@H](NP(=O)(OC[C@H]1O[C@@H](n2cnc3c(O)nc(N)nc32)[C@](C)(F)[C@@H]1O)Oc1ccccc1)C(=O)OC1CCCC1` (stereo partly drawn) [Compound 14, (2S)-cyclopentyl 2-((((2R,3R,4R,5R)-5-(2-amino-6-hydroxy-9H-purin-9-yl)-4-fluoro-3-hydroxy-4-methyltetrahydrofuran-2-yl)methoxy)(phenoxy)phosphorylamino)propanoate]: the EC90 (Hepatitis C virus, Huh-7, 96 h) is 0.13 µM.
For the compound `COc1nc(N)nc2c1ncn2[C@@H]1O[C@H](COP(=O)(N[C@@H](C)C(=O)OC(C)C)Oc2ccccc2)[C@@H](O)[C@@]1(C)F` (stereo partly drawn) [Compound 11, (2S)-isopropyl 2-((((2R,3R,4R,5R)-5-(2-amino-6-methoxy-9H-purin-9-yl)-4-fluoro-3-hydroxy-4-methyltetrahydrofuran-2-yl)methoxy) (phenoxy)phosphorylamino)propanoate], the EC90 (Hepatitis C virus, Huh-7, 96 h) worked out at 0.02 µM.
